ChEMBL document CHEMBL1125668, “Synthesis and anti-HIV activity of 2-, 3-, and 4-substituted analogues of 1-[(2-hydroxyethoxy)methyl]-6-(phenylthio)thymine (HEPT)” (J Med Chem, 1991)

Legend:
[1] = system: Human immunodeficiency virus 2; test: Inhibitory activity against HIV-2(LAV-2ROD strain) replication in MT-4 cells; assay type: functional, organism-based; conditions: Human immunodeficiency virus 2, MT4
[2] = system: Human immunodeficiency virus 1; test: Inhibitory activity against HIV-1 (HTLV-IIIB strain) replication in MT-4 cells; assay type: functional, organism-based; conditions: Human immunodeficiency virus 1, MT4
[3] = system: Human immunodeficiency virus 1; test: Cytotoxic concentration of compound required to reduce the viability of mock infected MT-4 cells against the HIV-1 (HTLV-IIIB)induced cytopathic effect; assay type: functional; conditions: Human immunodeficiency virus 1, MT4
[4] = system: Human immunodeficiency virus 2; test: Inhibitory activity against HIV-2(LAV-2EHO strain) replication in MT-4 cells; assay type: functional, organism-based; conditions: Human immunodeficiency virus 2, MT4
[5] = system: Human immunodeficiency virus 1; test: Inhibitory activity against HIV-1 (HTLV-IIIB strain) replication in peripheral blood lymphocytes; assay type: functional, organism-based
[6] = system: Human immunodeficiency virus 1; test: Inhibitory activity against HIV-1 (HTLV-IIIRF strain) replication in MT-4 cells; assay type: functional, organism-based; conditions: Human immunodeficiency virus 1, MT4
[7] = system: Human immunodeficiency virus 1; test: Cytotoxic concentration of compound required to incorporate [5-3H]-Urd into RNA of mock infected peripheral blood lymphocytes in HIV-1 (HTLV-IIIB)by 50%; assay type: functional

| Structure (SMILES) | EC50 [2] | EC50 [1] | CC50 [3] | EC50 [4] | EC50 [5] | EC50 [6] | CC50 [7] |
| --- | --- | --- | --- | --- | --- | --- | --- |
| Nc1ncnc2c1ncn2[C@H]1CC[C@@H](CO)O1 | 6.3 µM | 7.2 µM | > 500 µM |  |  |  |  |
| Nc1cc(Sc2ccccc2)n(COCCO)c(=O)n1 | > 250 µM |  | > 250 µM |  |  |  |  |
| Cc1c(Sc2ccccc2)n(COCCO)c(=O)n(Cc2ccccc2)c1=O | > 40 µM |  | 40 µM |  |  |  |  |
| Cc1c(Sc2ccccc2)n(COCCO)c(=O)[nH]c1=O [HEPT] | 7 µM | > 250 µM | 740 µM | > 250 µM | 7.9 µM | 8.1 µM | 640 µM |
| Cc1cn([C@H]2C[C@H](N=[N+]=[N-])[C@@H](CO)O2)c(=O)[nH]c1=O [ZIDOVUDINE] | 0.003 µM | 0.0028 µM | 7.8 µM |  |  |  |  |

More lines, main results first:

| EC50 [2] | Structure (SMILES) | EC50 [1] | CC50 [3] | EC50 [4] | EC50 [5] | EC50 [6] | CC50 [7] |
| --- | --- | --- | --- | --- | --- | --- | --- |
| > 198 µM | O=c1cc(Sc2ccccc2)n(COCCO)c(=S)[nH]1 |  | 198 µM |  |  |  |  |
| > 27 µM | Cc1c(Sc2ccccc2)n(COCCO)c(=O)[nH]c1=S |  | 27 µM |  |  |  |  |
| > 374 µM | Cc1c(Sc2ccccc2)n(COCCO)c(=O)n(C)c1=O |  | > 374 µM |  |  |  |  |
| > 91 µM | Cc1c(N)nc(=O)n(COCCO)c1Sc1ccccc1 |  | 91 µM |  |  |  |  |
| > 4.1 µM | O=c1[nH]c(=S)cc(Sc2ccccc2)n1COCCO |  | 4.1 µM |  |  |  |  |
| 0.98 µM | Cc1c(Sc2ccccc2)n(COCCO)c(=S)[nH]c1=O | > 100 µM | 123 µM | > 100 µM | 2.9 µM | 2.5 µM | 292 µM |
